Columns and labels:
[1] = Noncompartmental toxicokinetic analysis of plasma after IV dosing in piglets
Description: Table 1 summarizes the protocol of the experiments and the plasma and urine datasets further considered for TK analyses. A first experiment (Exp. 1) was performed in 8 male piglets age 42 d ( 20.8±1.6kg BW) to investigate oral BPA TK. […] BPA data obtained after IV BPA administrations had already been used to evaluate human BPA clearance using an allometric approach ([Collet et al. 2015]).
For the IV administrations, BPA powder was dissolved in ethanol–propylene glycol (1:49, vol:vol) at 50mg/mL (Exp.1 and 2) and in ethanol–saline (1:2, vol:vol) at 23mg/mL (Exp. 5).
During the first 24 h of sampling, the piglets were housed individually in stainless steel cages.
(§1) The plasma analytes concentration–time data from individual piglets were used to derive the maximum concentration (Cmax), and the time to maximum concentration (Tmax). The area under the plasma concentration–time curves from dosing time to the time of the last measurable concentration ( AUC0–tlast ) were calculated using the linear trapezoidal rule (Equation 1). (1) AUC0–tlast=∑0tlast(Ci−1+Ci/2)×(ti−ti−1) where Ci is the concentration obtained at the time i ( ti ).
(§2) The area under the plasma concentration time curve from t=0 to infinity ( AUC0–inf ) was obtained using Equation 2. (2) AUC0–inf=AUC0–tlast+AUCtlast–inf where AUCtlast–inf is the area extrapolated from the last observation to infinity, calculated according to Equation 3: (3) AUCtlast–inf=Clast/λz where Clast is the last observed quantifiable plasma concentration, and λz is the slope of the terminal phase, as estimated by linear regression using the best fit option of Phoenix®.

[2] = in vivo
Description: Table 1 summarizes the protocol of the experiments and the plasma and urine datasets further considered for TK analyses.
For administrations by gavage, BPA powder was dissolved in ethanol–corn oil (1:9, vol:vol) at 100mg/mL (Exp. 1).
as §1, §2

[3] = Population semiphysiologically based 9-compartment TK model (NLME) of plasma and urine data in piglets; settings: for bioavailability: po; for k el: plasma and urine, other: intravenous and oral (data sets combined), tvK30, elimination rate constant from plasma to urine
Description: The NLME model was therefore developed by combining the plasma and urinary data sets from the five TK experiments carried out in piglets, except for the urinary BPA concentration obtained after oral administration of BPA.
Different compartmental models and submodels were tested and compared using the likelihood ratio test (LRT). The primary parameters of the model, namely the volumes of distribution ( VBPA , VBPAG , VBPS , VBPSG ) and the first-order rate constants ( Kij ) and their associated precisions [standard error (SE)] were estimated by minimizing an objective function value (OFV) expressed as minus twice the log of the likelihood estimation ( −2LL ).
The between-subject variability (BSV) of the parameters was evaluated using the exponential model θparameter_i=θtv_parameter×exp(ηi) , where θparameter_i is the parameter estimated for the i^th individual, θtv_parameter is the typical population value of the parameter, and ηi is the deviation associated with the i^th individual from the corresponding value of the parameter at the population level. The distribution of ηi was assumed to be normal with a mean of 0 and a variance ω² . The BSV was reported as a coefficient of variation (CV) in the original scale CV(%)=100× exp (ω^2)−1 .
The residual variance was modeled using a combined additive and proportional error model Cobsij=Cpredij(1+ε1ij)+ε2ij where Cobsij and Cpredij are respectively the j^th observed and predicted concentrations for the i^th individual and ε1ij and ε2ij the multiplicative and additive residual errors.
The bootstrap tool (20 replicates) was used to evaluate the mean, median, SE, and coefficient of variation of the parameter estimates. The predictive ability of the model was checked graphically by plotting Visual Predictive Check plots to compare the observed data with the selected quantiles (here 20th, 50th and 80th percentiles) of data simulated using the model and obtained from 200–1,000 replicates from each animal based on the structure of the original data (i.e., dosing, timing and number of samples).
For the LRT test, the critical value of the χ^2 distribution considered for a given nominal risk and a given number of degrees of freedom was obtained using the Excel function CHISQ.INV.RT().
Figure 1. Schematic representation of the compartmental model. […] The link between the two central compartments was modeled with a compartment (CP2) that should be viewed as the liver. […] The fraction of absorbed BPA that is not hepatically transformed reaches the CP3 via K23 . The exchanges between CP2 and CP3 are bilateral, K32 being the rate constant between CP3 and CP2 and K23 the rate constant between CP2 and CP3. […] It was assumed that no phase-two metabolite other than BPAG (BPSG) was formed.
(12) Bioavailability=K12/K12+K110+K10×(1−K25/K25+K23) with K10 , K12 , K110 , K23; K25 as defined above.

[4] = no reference given; cited from earlier work
[5] = set-up: method as in EFSA CEF Panel 2015; settings: ref EFSA CEF Panel 2015; cited from earlier work
[6] = human; cited from earlier work
[7] = Cumulative urinary excretion after IV and oral dosing in piglets

Compound: CC(C)(c1ccc(O)cc1)c1ccc(O)cc1 [BPA, bisphenol A]
- time after which plasma concentrations were below the LOQ ([1]; after IV BPA and BPS administration): > 12 h
- AUC0-tlast/dose ([1]; pig, in vivo, iv): 0.34±0.14 μmol×h/L per μmol/kg
- clearance ([1]; pig, in vivo, iv): 56.8 mL/min/kg
- AUClast/dose ([2]; both, pig, in vivo, po): 0.0024±0.0027 μmol×h/L per μmol/kg BW
- Cl_F (apparent clearance) ([2]; both, pig, in vivo, po): 21170 ± 20830 mL/min/kg
- Tmax ([2]; both, pig, in vivo, po, Tmax): 57 ± 33 min
- Tmax ([2]; both, pig, in vivo, po, time to maximal plasma concentration): ~60 min
- mean fraction of total (parent plus glucuronide) in plasma that is unconjugated ([2]; oral dosing, piglets): 0.16%
- tvK10, rate constant of unabsorbed compound from the gastrointestinal tract, Mean ([3]; bootstrap mean): 0.223 h⁻¹
- tvK12, rate constant of absorption by enterocytes passing directly into the portal blood, Mean ([3]; bootstrap mean): 0.365 h⁻¹
- tvK23, distribution rate constant liver to plasma, Mean ([3]; bootstrap mean): 1.53 h⁻¹
- tvK32, distribution rate constant, Mean ([3]; bootstrap mean): 3.72 h⁻¹
- tvK34, distribution rate constant, Mean ([3]; bootstrap mean): 5.90 h⁻¹
- tvK43, distribution rate constant, Mean ([3]; bootstrap mean): 3.89 h⁻¹
- tvK110, rate constant of compound absorbed by enterocytes locally subjected to glucuronidation, Mean ([3]; bootstrap mean): 0.349 h⁻¹
- tvK10, rate constant of unabsorbed compound from the gastrointestinal tract, Median ([3]; bootstrap median): 0.219 h⁻¹
- tvK12, rate constant of absorption by enterocytes passing directly into the portal blood, Median ([3]; bootstrap median): 0.371 h⁻¹
- tvK23, distribution rate constant liver to plasma, Median ([3]; bootstrap median): 1.32 h⁻¹
- tvK32, distribution rate constant, Median ([3]; bootstrap median): 3.31 h⁻¹
- tvK34, distribution rate constant, Median ([3]; bootstrap median): 4.14 h⁻¹
- tvK43, distribution rate constant, Median ([3]; bootstrap median): 3.68 h⁻¹
- tvK110, rate constant of compound absorbed by enterocytes locally subjected to glucuronidation, Median ([3]; bootstrap median): 0.318 h⁻¹
- CL renal ([3]; both, pig, in vivo): 0.0333 mL/min/kg
- mean volume of the central compartment ([3]; both, pig, in vivo): 1.0 L/kg
- metabolic hepatic clearance as fraction of plasma clearance ([3]; both, pig, in vivo): higher than 99%
- renal clearance as fraction of plasma clearance estimated by noncompartmental analysis ([3]; both, pig, in vivo): 0.06%
- tvV, volume of the central compartment, Mean ([3]; both, pig, in vivo): 1.03 L/kg
- tvV, volume of the central compartment, Median ([3]; both, pig, in vivo): 1.00 L/kg
- bioavailability ([3]; both, pig, in vivo): 0.5%
- k el ([3]; both, pig, Mean, bootstrap mean): 7.22e-07 s⁻¹
- k el ([3]; both, pig, Median, bootstrap median): 5.56e-07 s⁻¹
- fraction of the absorbed dose glucuronidated in the gut ([3]; oral, % of absorbed dose): 44%
- fraction of the absorbed dose reaching the liver / first-pass glucuronidated in the liver ([3]; oral, % of absorbed dose): 53%
- fraction of the dose reaching the liver unchanged ([3]; oral, % of administered dose): 40.3%
- fraction of the dose subjected to hepatic first-pass effect ([3]; oral, % of administered dose): 39.9%
- hepatic first-pass effect: fraction of compound reaching the liver that is glucuronidated ([3]; oral, % of the fraction reaching the liver): 99%
- Fraction of absorbed BPA undergoing a first-pass effect (gut and liver), Mean ([3]; oral, bootstrap mean): 0.988
- Fraction of administered compound glucuronidated by the gastro-intestinal tract, Mean ([3]; oral, bootstrap mean): 0.360
- Fraction of administered compound reaching the liver by the portal blood flow, Mean ([3]; oral, bootstrap mean): 0.405
- fraction absorbed by the gastro-intestinal tract, Mean ([3]; oral, bootstrap mean): 0.765
- Fraction of absorbed BPA undergoing a first-pass effect (gut and liver), Median ([3]; oral, bootstrap median): 0.989
- Fraction of administered compound glucuronidated by the gastro-intestinal tract, Median ([3]; oral, bootstrap median): 0.340
- Fraction of administered compound reaching the liver by the portal blood flow, Median ([3]; oral, bootstrap median): 0.403
- fraction absorbed by the gastro-intestinal tract, Median ([3]; oral, bootstrap median): 0.766
- CL renal ([3]; pig, in vivo): 0.0333 mL/min/kg
- renal clearance, Median ([3]; pig, in vivo): 0.0333 mL/min/kg
- bioavailability ([3]; pig, in vivo): 0.5%
- LogP [4]: 3.3
- tolerable daily intake (TDI), fixed temporarily [5]: 4 μg/kg BW per day
- intestinal intrinsic clearance [6]: 7.22 mL/min/kg
- liver intrinsic clearance [6]: 61.2 mL/min/kg
- part of the dose eliminated in urine ([7]; 3 h after dosing): About half
- unconjugated compound in urine, fraction of IV dose ([7]; IV BPA and BPS doses): 0.044±0.028%

— publication PMC6792350 (Environmental Health Perspectives, 2019)
